Measurements reported in patent US11590139B2, “Substituted aminopurine compounds, compositions thereof, and methods of treatment therewith” (Signal Pharmaceuticals, LLC, priority 2014, dated 2023).

System: Lox-IMVI melanoma cell line
Experiment: Lox-IMVI anti-proliferative assay (growth inhibition, Cell Titer-Glo)
Format: cell-based, human
Conditions: Homo sapiens; IC50 activity level in the cell-based Lox-IMVI anti-proliferative assay; read-out: Activity
Outline: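 Lox-IMVI cells in RPMI+10% FBS exposed 72 h at 37 °C to 10-point, 3-fold dilutions (0.5 nM–10 μM; 0.2% DMSO final), in duplicate. Viability by Cell Titer-Glo luminescence, with a t0 cell-number reading; data as % of DMSO control; IC50 from a four-parameter logistic fit.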

NC(=O)[C@H]1CC[C@@H](n2c(Nc3ccc(Cl)cc3Cl)nc3cnc(NC4COCC4O)nc32)CC1 (some centres unmarked) [Example 191, (1s,4s)-4-(8-(2,4-dichlorophenylamino)-2-(4-hydroxytetrahydrofuran-3-ylamino)-9H-purin-9-yl)cyclohexanecarboxamide]
IC50: > 1000 nM

NC(=O)[C@H]1CC[C@@H](n2c(Nc3cccc(Cl)c3F)nc3cnc(NC4COCC4O)nc32)CC1 (some centres unmarked) [Example 192, (1s,4s)-4-(8-(3-chloro-2-fluorophenylamino)-2-(4-hydroxytetrahydrofuran-3-ylamino)-9H-purin-9-yl)cyclohexanecarboxamide]
IC50: > 1000 nM

NC(=O)[C@H]1CC[C@@H](n2c(Nc3c(Cl)cc(F)cc3Cl)nc3cnc(NC4CC5(COC5)C4)nc32)CC1 [Example 193, (1s,4s)-4-(2-(2-oxaspiro[3.3]heptan-6-ylamino)-8-(2,6-dichloro-4-fluorophenylamino)-9H-purin-9-yl)cyclohexanecarboxamide]
IC50: > 1000 nM

NC(=O)[C@H]1CC[C@@H](n2c(Nc3ccc(Cl)c(F)c3F)nc3cnc(NC4CC5(COC5)C4)nc32)CC1 [Example 194, (1s,4s)-4-(2-(2-oxaspiro[3.3]heptan-6-ylamino)-8-(4-chloro-2,3-difluorophenylamino)-9H-purin-9-yl)cyclohexanecarboxamide]
IC50: > 1000 nM

NC(=O)[C@H]1CC[C@@H](n2c(Nc3c(F)cc(Cl)cc3Cl)nc3cnc(NC4CC5(COC5)C4)nc32)CC1 [Example 195, (1s,4s)-4-(2-(2-oxaspiro[3.3]heptan-6-ylamino)-8-(2,4-dichloro-6-fluorophenylamino)-9H-purin-9-yl)cyclohexanecarboxamide]
IC50: 250 to 500 nM

NC(=O)[C@H]1CC[C@@H](n2c(Nc3c(F)ccc(Cl)c3F)nc3cnc(NC4CC5(COC5)C4)nc32)CC1 [Example 196, (1s,4s)-4-(2-(2-oxaspiro[3.3]heptan-6-ylamino)-8-(3-chloro-2,6-difluorophenylamino)-9H-purin-9-yl)cyclohexanecarboxamide]
IC50: > 1000 nM

CC(=O)N1CCC(Nc2ncc3nc(Nc4c(Cl)cc(Cl)cc4Cl)n([C@H]4CC[C@@H](C(N)=O)CC4)c3n2)CC1 [Example 197, (1s,4s)-4-(2-(1-acetylpiperidin-4-ylamino)-8-(2,4,6-trichlorophenylamino)-9H-purin-9-yl)cyclohexanecarboxamide]
IC50: > 1000 nM

CC(=O)N1CCC(Nc2ncc3nc(Nc4c(F)cc(Cl)cc4Cl)n([C@H]4CC[C@@H](C(N)=O)CC4)c3n2)CC1 [Example 198, (1s,4s)-4-(2-(1-acetylpiperidin-4-ylamino)-8-(2,4-dichloro-6-fluorophenylamino)-9H-purin-9-yl)cyclohexanecarboxamide]
IC50: > 1000 nM

NC(=O)[C@H]1CC[C@@H](n2c(Nc3c(F)cc(F)cc3Cl)nc3cnc(N[C@@H]4CCOC4)nc32)CC1 [Example 199, (1S,4s)-4-(8-(2-chloro-4,6-difluorophenylamino)-2-((R)-tetrahydrofuran-3-ylamino)-9H-purin-9-yl)cyclohexanecarboxamide]
IC50: 500 to 1000 nM

NC(=O)[C@H]1CC[C@@H](n2c(Nc3c(F)cc(Cl)cc3F)nc3cnc(NC4CCC(F)(F)CC4)nc32)CC1 [Example 200, (1s,4s)-4-(8-(4-chloro-2,6-difluorophenylamino)-2-(4,4-difluorocyclohexylamino)-9H-purin-9-yl)cyclohexanecarboxamide]
IC50: 250 to 500 nM

NC(=O)[C@H]1CC[C@@H](n2c(Nc3c(Cl)cc(F)cc3Cl)nc3cnc(NC4CCC(F)(F)CC4)nc32)CC1 [Example 201, (1s,4s)-4-(8-(2,6-dichloro-4-fluorophenylamino)-2-(4,4-difluorocyclohexylamino)-9H-purin-9-yl)cyclohexanecarboxamide]
IC50: 250 to 500 nM

NC(=O)[C@H]1CC[C@@H](n2c(Nc3c(Cl)cc(F)cc3Cl)nc3cnc(N[C@H]4CCCOC4)nc32)CC1 [Example 202, (1R,4s)-4-(8-(2,6-dichloro-4-fluorophenylamino)-2-((S)-tetrahydro-2H-pyran-3-ylamino)-9H-purin-9-yl)cyclohexanecarboxamide]
IC50: > 1000 nM

NC(=O)[C@H]1CC[C@@H](n2c(Nc3c(F)cc(Cl)cc3F)nc3cnc(N[C@H]4CCCOC4)nc32)CC1 [Example 203, (1R,4s)-4-(8-(4-chloro-2,6-difluorophenylamino)-2-((S)-tetrahydro-2H-pyran-3-ylamino)-9H-purin-9-yl)cyclohexanecarboxamide]
IC50: > 1000 nM

NC(=O)[C@H]1CC[C@@H](n2c(Nc3c(F)cc(Cl)cc3Cl)nc3cnc(N[C@H]4CCCOC4)nc32)CC1 [Example 204, (1R,4s)-4-(8-(2,4-dichloro-6-fluorophenylamino)-2-((S)-tetrahydro-2H-pyran-3-ylamino)-9H-purin-9-yl)cyclohexanecarboxamide]
IC50: > 1000 nM

NC(=O)[C@H]1CC[C@@H](n2c(Nc3c(Cl)cc(Cl)cc3Cl)nc3cnc(NCC4(CO)CC4)nc32)CC1 [Example 205, (1s,4s)-4-(2-((1-(hydroxymethyl)cyclopropyl)methylami-no)-8-(2,4,6-trichlorophenylamino)-9H-purin-9-yl)cyclohexanecarboxamide]
IC50: > 1000 nM

NC(=O)[C@H]1CC[C@@H](n2c(Nc3c(F)cc(Cl)cc3Cl)nc3cnc(NCC4(CO)CC4)nc32)CC1 [Example 206, (1s,4s)-4-(8-(2,4-dichloro-6-fluorophenylamino)-2-((1-(hydroxymethyl)cyclopropyl)methylami-no)-9H-purin-9-yl)cyclohexanecarboxamide]
IC50: > 1000 nM

NC(=O)[C@H]1CC[C@@H](n2c(Nc3c(F)cc(F)cc3F)nc3cnc(N[C@@H]4CC[C@@H](O)C4)nc32)CC1 [Example 207, (1S,4s)-4-(2-((1R,3R)-3-hydroxycyclopentylamino)-8-(2,4,6-trifluorophenylamino)-9H-purin-9-yl)cyclohexanecarboxamide]
IC50: > 1000 nM

NC(=O)[C@H]1CC[C@@H](n2c(Nc3c(F)cccc3Cl)nc3cnc(N[C@@H]4CC[C@@H](O)C4)nc32)CC1 [Example 208, (1S,4s)-4-(8-(2-chloro-6-fluorophenylamino)-2-((1R,3R)-3-hydroxycyclopentylamino)-9H-purin-9-yl)cyclohexanecarboxamide]
IC50: > 1000 nM

NC(=O)[C@H]1CC[C@@H](n2c(Nc3c(F)cccc3F)nc3cnc(N[C@@H]4CC[C@@H](O)C4)nc32)CC1 [Example 209, (1S,4s)-4-(8-(2,6-difluorophenylamino)-2-((1R,3R)-3-hydroxycyclopentylamino)-9H-purin-9-yl)cyclohexanecarboxamide]
IC50: > 1000 nM

NC(=O)[C@H]1CC[C@@H](n2c(Nc3c(F)cc(F)cc3Cl)nc3cnc(N[C@@H]4CC[C@@H](O)C4)nc32)CC1 [Example 210, (1S,4s)-4-(8-(2-chloro-4,6-difluorophenylamino)-2-((1R,3R)-3-hydroxycyclopentylamino)-9H-purin-9-yl)cyclohexanecarboxamide]
IC50: > 1000 nM

NC(=O)[C@H]1CC[C@@H](n2c(Nc3c(Cl)cccc3Cl)nc3cnc(N[C@@H]4CC[C@@H](O)C4)nc32)CC1 [Example 211, (1S,4s)-4-(8-(2,6-dichlorophenylamino)-2-((1R,3R)-3-hydroxycyclopentylamino)-9H-purin-9-yl)cyclohexanecarboxamide]
IC50: > 1000 nM

NC(=O)[C@H]1CC[C@@H](n2c(Nc3c(Cl)cc(Cl)cc3Cl)nc3cnc(N[C@@H]4CC[C@@H](O)C4)nc32)CC1 [Example 212, (1S,4s)-4-(2-((1R,3R)-3-hydroxycyclopentylamino)-8-(2,4,6-trichlorophenylamino)-9H-purin-9-yl)cyclohexanecarboxamide]
IC50: 250 to 500 nM

NC(=O)[C@H]1CC[C@@H](n2c(Nc3c(F)cc(Cl)cc3Cl)nc3cnc(N[C@@H]4CC[C@@H](O)C4)nc32)CC1 [Example 213, (1S,4s)-4-(8-(2,4-dichloro-6-fluorophenylamino)-2-((1R,3R)-3-hydroxycyclopentylamino)-9H-purin-9-yl)cyclohexanecarboxamide]
IC50: 250 to 500 nM

NC(=O)[C@H]1CC[C@@H](n2c(Nc3c(Cl)cc(F)cc3Cl)nc3cnc(N[C@@H]4CC[C@@H](O)C4)nc32)CC1 [Example 214, (1S,4s)-4-(8-(2,6-dichloro-4-fluorophenylamino)-2-((1R,3R)-3-hydroxycyclopentylamino)-9H-purin-9-yl)cyclohexanecarboxamide]
IC50: > 1000 nM

NC(=O)[C@H]1CC[C@@H](n2c(Nc3c(F)cc(Cl)cc3F)nc3cnc(N[C@@H]4CC[C@@H](O)C4)nc32)CC1 [Example 215, (1S,4s)-4-(8-(4-chloro-2,6-difluorophenylamino)-2-((1R,3R)-3-hydroxycyclopentylamino)-9H-purin-9-yl)cyclohexanecarboxamide]
IC50: 250 to 500 nM

NC(=O)[C@H]1CC[C@@H](n2c(Nc3ccc(Cl)c(F)c3F)nc3cnc(N[C@@H]4CC[C@@H](O)C4)nc32)CC1 [Example 216, (1S,4s)-4-(8-(4-chloro-2,3-difluorophenylamino)-2-((1R,3R)-3-hydroxycyclopentylamino)-9H-purin-9-yl)cyclohexanecarboxamide]
IC50: > 1000 nM

NC(=O)[C@H]1CC[C@@H](n2c(Nc3c(F)ccc(Cl)c3F)nc3cnc(N[C@@H]4CC[C@@H](O)C4)nc32)CC1 [Example 217, (1S,4s)-4-(8-(3-chloro-2,6-difluorophenylamino)-2-((1R,3R)-3-hydroxycyclopentylamino)-9H-purin-9-yl)cyclohexanecarboxamide]
IC50: > 1000 nM

NC(=O)[C@H]1CC[C@@H](n2c(Nc3c(F)ccc(F)c3F)nc3cnc(N[C@@H]4CC[C@@H](O)C4)nc32)CC1 [Example 218, (1S,4s)-4-(2-((1R,3R)-3-hydroxycyclopentylamino)-8-(2,3,6-trifluorophenylamino)-9H-purin-9-yl)cyclohexanecarboxamide]
IC50: > 1000 nM

NC(=O)[C@H]1CC[C@@H](n2c(Nc3ccc(Cl)cc3Cl)nc3cnc(N[C@@H]4CC[C@@H](O)C4)nc32)CC1 [Example 219, (1S,4s)-4-(8-(2,4-dichlorophenylamino)-2-((1R,3R)-3-hydroxycyclopentylamino)-9H-purin-9-yl)cyclohexanecarboxamide]
IC50: > 1000 nM
